Conditions: Liquid, Vibrating tube method

CCCCOC [butyl methyl ether]
Conditions	mass density [kg/m3]
283.15 K, 100 kPa	755.88
283.15 K, 5000 kPa	760.82
283.15 K, 10000 kPa	765.42
283.15 K, 15000 kPa	769.77
283.15 K, 20000 kPa	773.91
283.15 K, 25000 kPa	777.86
283.15 K, 30000 kPa	781.65
283.15 K, 35000 kPa	785.29
283.15 K, 40000 kPa	788.8
283.15 K, 45000 kPa	792.18
283.15 K, 50000 kPa	795.45
283.15 K, 55000 kPa	798.61
283.15 K, 60000 kPa	801.68
283.15 K, 65000 kPa	804.67
288.15 K, 100 kPa	750.88
288.15 K, 5000 kPa	756.01
288.15 K, 10000 kPa	760.78
288.15 K, 15000 kPa	765.26
288.15 K, 20000 kPa	769.53
288.15 K, 25000 kPa	773.58
288.15 K, 30000 kPa	777.48
288.15 K, 35000 kPa	781.19
288.15 K, 40000 kPa	784.79
288.15 K, 45000 kPa	788.24
288.15 K, 50000 kPa	791.57
288.15 K, 55000 kPa	794.8
288.15 K, 60000 kPa	797.94
288.15 K, 65000 kPa	800.98
293.15 K, 100 kPa	745.85
293.15 K, 5000 kPa	751.18
293.15 K, 10000 kPa	756.08
293.15 K, 15000 kPa	760.71
293.15 K, 20000 kPa	765.09
293.15 K, 25000 kPa	769.27
293.15 K, 30000 kPa	773.26
293.15 K, 35000 kPa	777.09
293.15 K, 40000 kPa	780.75
293.15 K, 45000 kPa	784.3
293.15 K, 50000 kPa	787.7
293.15 K, 55000 kPa	791
293.15 K, 60000 kPa	794.21
293.15 K, 65000 kPa	797.33
298.15 K, 100 kPa	740.78
298.15 K, 5000 kPa	746.29
298.15 K, 10000 kPa	751.36
298.15 K, 15000 kPa	756.15
298.15 K, 20000 kPa	760.68
298.15 K, 25000 kPa	764.97
298.15 K, 30000 kPa	769.08
298.15 K, 35000 kPa	772.99
298.15 K, 40000 kPa	776.76
298.15 K, 45000 kPa	780.38
298.15 K, 50000 kPa	783.87
298.15 K, 55000 kPa	787.24
298.15 K, 60000 kPa	790.51
298.15 K, 65000 kPa	793.65
303.15 K, 100 kPa	735.68
303.15 K, 5000 kPa	741.39
303.15 K, 10000 kPa	746.66
303.15 K, 15000 kPa	751.6
303.15 K, 20000 kPa	756.25
303.15 K, 25000 kPa	760.68
303.15 K, 30000 kPa	764.89
303.15 K, 35000 kPa	768.9
303.15 K, 40000 kPa	772.76
303.15 K, 45000 kPa	776.46
303.15 K, 50000 kPa	780.03
303.15 K, 55000 kPa	783.46
303.15 K, 60000 kPa	786.77
303.15 K, 65000 kPa	790
308.15 K, 100 kPa	730.53
308.15 K, 5000 kPa	736.43
308.15 K, 10000 kPa	741.88
308.15 K, 15000 kPa	746.98
308.15 K, 20000 kPa	751.8
308.15 K, 25000 kPa	756.35
308.15 K, 30000 kPa	760.67
308.15 K, 35000 kPa	764.79
308.15 K, 40000 kPa	768.74
308.15 K, 45000 kPa	772.53
308.15 K, 50000 kPa	776.18
308.15 K, 55000 kPa	779.69
308.15 K, 60000 kPa	783.07
308.15 K, 65000 kPa	786.36
313.15 K, 100 kPa	725.34
313.15 K, 5000 kPa	731.47
313.15 K, 10000 kPa	737.11
313.15 K, 15000 kPa	742.4
313.15 K, 20000 kPa	747.36
313.15 K, 25000 kPa	752.04
313.15 K, 30000 kPa	756.48
313.15 K, 35000 kPa	760.7
313.15 K, 40000 kPa	764.74
313.15 K, 45000 kPa	768.63
313.15 K, 50000 kPa	772.34
313.15 K, 55000 kPa	775.93
313.15 K, 60000 kPa	779.39
313.15 K, 65000 kPa	782.73
318.15 K, 100 kPa	720.1
318.15 K, 5000 kPa	726.46
318.15 K, 10000 kPa	732.32
318.15 K, 15000 kPa	737.77
318.15 K, 20000 kPa	742.89
318.15 K, 25000 kPa	747.69
318.15 K, 30000 kPa	752.27
318.15 K, 35000 kPa	756.62
318.15 K, 40000 kPa	760.76
318.15 K, 45000 kPa	764.73
318.15 K, 50000 kPa	768.51
318.15 K, 55000 kPa	772.16
318.15 K, 60000 kPa	775.71
318.15 K, 65000 kPa	779.13
323.15 K, 100 kPa	714.8
323.15 K, 5000 kPa	721.41
323.15 K, 10000 kPa	727.49
323.15 K, 15000 kPa	733.12
323.15 K, 20000 kPa	738.42
323.15 K, 25000 kPa	743.37
323.15 K, 30000 kPa	748.07
323.15 K, 35000 kPa	752.53
323.15 K, 40000 kPa	756.76
323.15 K, 45000 kPa	760.83
323.15 K, 50000 kPa	764.7
323.15 K, 55000 kPa	768.43
323.15 K, 60000 kPa	772.05
323.15 K, 65000 kPa	775.54
328.15 K, 100 kPa	709.45
328.15 K, 5000 kPa	716.32
328.15 K, 10000 kPa	722.64
328.15 K, 15000 kPa	728.5
328.15 K, 20000 kPa	733.93
328.15 K, 25000 kPa	739.05
328.15 K, 30000 kPa	743.83
328.15 K, 35000 kPa	748.41
328.15 K, 40000 kPa	752.76
328.15 K, 45000 kPa	756.92
328.15 K, 50000 kPa	760.91
328.15 K, 55000 kPa	764.72
328.15 K, 60000 kPa	768.39
328.15 K, 65000 kPa	771.91
333.15 K, 100 kPa	704.04
333.15 K, 5000 kPa	711.19
333.15 K, 10000 kPa	717.74
333.15 K, 15000 kPa	723.77
333.15 K, 20000 kPa	729.38
333.15 K, 25000 kPa	734.64
333.15 K, 30000 kPa	739.61
333.15 K, 35000 kPa	744.31
333.15 K, 40000 kPa	748.78
333.15 K, 45000 kPa	753.01
333.15 K, 50000 kPa	757.06
333.15 K, 55000 kPa	760.97
333.15 K, 60000 kPa	764.71
333.15 K, 65000 kPa	768.34
